From patent US7993670B2, “Medical pad, and method for making and using” (General Wound Kare, Inc., priority 2003, dated 2011) come the findings set out here.

SMILES strings stand for the structures.

For the series, the system named is wound. The series is described as follows: Clinical experience: treatment of a patient's wound.
The mark [1] stands for this setting: after a week of daily 1% gentian violet solution.

Source text: A change in the procedure was made. Instead of the direct application of the 1% gentian violet solution, a polyurethane pad, containing a reduced amount of gentian violet, mixed with glycerin and water, and then dried, was applied to the wound covered by the scab. Daily washings were continued and the scab was eventually debrided.

With `CN(C)c1ccc(C(=C2C=CC(=[N+](C)C)C=C2)c2ccc(N(C)C)cc2)cc1` [gentian violet], under “1% gentian violet solution applied daily, wound washed daily with soap and water”, the scab formation result is reported as “scab was formed”. Further, under setting [1], the “infection of the wound” value is “no evidence of any infection” and the “size of the wound” value is given as “remained the same”. Moreover, the “staining of the painted wound area” value (liquid gentian violet solution at 1% strength painted on the wound daily) is “stained purple”.
